# Measured values from patent US20090123940A1, “MOLECULES INVOLVED IN SYNAPTOGENESIS AND USES THEREFOR” (THE JOHNS HOPKINS UNIVERSITY, priority 2007, published 2009).
# Key:
# [1] = test system: Schaffer collateral-CA1 synapse; experiment: mGluR1/5-dependent LTD in hippocampal slices (field EPSP recording); type: cell-based, mouse; settings: for fEPSP slope after DHPG-induced LTD: control mouse slices, t=75 min, DHPG 50 μM for 5 min, TAPI-2 50 μM for 20 min starting 15 min before DHPG
# Experimental: mGluR1/5-dependent LTD in hippocampus. Hippocampal slices from postnatal day 21 to 28 mice were prepared as previously described (Huber et al., Science 288:1254-[…]). […] Transverse slices (400 μm thick) were cut on a Vibratome 3000 (The Vibratome company). Slices were transferred to a reservoir chamber filled with a normal aCSF which comprised (in mM): 124 mM NaCl, 2.5 mM KCl, 1.3 mM MgCl2, 2.5 mM CaCl2, 1 mM NaH2PO4, 26.2 mM NaHCO3, and 20 D-glucose. Slices were allowed to recover for 2-6 hr at room temperature (22-24° C.). For recording, slices were transferred to an interface type chamber, maintained at 32° C. for 1 hr, and perfused continuously with aCSF at a rate of 2.5 mL/min. Standard methods were used to record field EPSPs (fEPSPs) from the stratum radiatum in response to stimulation of the Schaffer collateral-commissural pathway with a concentric bipolar tungsten electrode (FHC, Bowdoin, Me.). The stimulus intensity was adjusted to elicit 50-60% of the maximal response. Evoked responses were stored on-line and analyzed off-line using Clampfit (Ver. 9.2). […] The strength of the synaptic response was measured as the fEPFP slope. […] LTD was expressed as percentage of the fEPSP slope during the baseline recording. All data shown for the time course are mean±SEM.
# [2] = test system: LFC-NPR (TACE cleavage of NPR); experiment: Western blot of LFC-NPR in lysates of cultured cortical neurons after DHPG; type: cell-based
# Experimental: Cell Culture, Transfection, Western Blot Analysis, and Co-immunoprecipitation analysis. HEK293T and […] (ATCC, Manassas, Va.) cell maintenance and transfection methods have been described previously (Xu et al., supra). Preparation and transfection of cultured hippocampal neurons were described previously (Rumbaugh et al., J Neurosci 23:4567-76, 2003). Western blot analysis of homogenates of HEK293T cells, cultured neurons, and brain extracts was performed as described previously (Xu et al., supra). Co-IP analysis to measure interaction between NPR and AMPAR was performed as described (Xu et al., supra).
# Ab LFC-NPR was used to examine the possibility that mGluR1/5 might regulate cleavage of NPR. mGluR1/5 activates PKC via phospholipase C and the production of diacylglycerol (DAG) and inositol triphosphate (IP3) that releases intracellular Ca^2+. […] Ab LFC-NPR detected a ˜60 kDa band from lysates that increased in intensity (expressed as a percent control) over time after stimulation with DHPG. No specific band was detected in the medium by Ab LFC-NPR or other NPR Abs. Absence of LFC-NPR in the medium of neurons was consistent with the observation that both Narp and NP1 were absent from medium even though they are secreted proteins detected on the cell surface using live labeling methods. […]
# [3] = test system: surface GluR1 / surface LFC-NPR; experiment: Cell surface biotinylation of cultured cortical neurons; type: cell-based; settings: for surface LFC-NPR: cultured cortical neurons after DHPG treatment
# Experimental: Cell Surface Biotinylation. Surface biotinylation of GluR1 at the plasma membrane was described previously (Snyder et al., Nat Neurosci 4:1079-85, 2001) with some modifications. Cultured cortical neurons were treated with DHPG for 5 minutes. Medium was then replaced with previously cultured medium. After 45 minutes, neurons were cooled on ice and washed with cold PBS containing 1 mM CaCl2 and 0.5 mM MgCl2 (PBS++). Cell surface proteins were labeled with cell-impermeable EZ-Link Sulfo-NHS-SS-Biotin (sulfosuccinimidyl-2-(biotinamido)ethyl-1,3-dithiopropionate; Pierce) in PBS^++ (1 mg/mL) at 4° C. for 30 min. Unreacted biotin was quenched by washing cells with cold 100 mM Glycine (pH 7.4). Cultures were lysed using RIPA buffer and homogenates were centrifuged at 13, 200 rpm to remove debris. 10% of the homogenates were used for total protein. 90% of the remaining homogenates were incubated with immobilized NeutrAvidin beads (Pierce). After washing with RIPA buffer, bound proteins were eluted with 2× Laemmli sample buffer supplemented with 2% β-ME. The eluted proteins were subjected to SDS-PAGE and Western blotting followed by ECL (Amersham Biosciences) and exposure to autoradiography film. Primary antibody concentrations were as follows: GluR1N at 0.12 μg/mL and β-actin at 1:1000. Quantification performed on digital images scanned from exposure matched autoradiographs. Densitometric analysis of these digital images was performed using ImageJ software (Version 1.33, National Institutes of Health). Significance was determined by paired Student's T-test.
# [4] = TAPI-2 = pretreatment before DHPG
# [5] = cultured cortical neurons, 45 min after DHPG treatment, TAPI-2 = pretreatment before DHPG
SMILES,"initial, phasic EPSP depression during DHPG treatment ([1]; TAPI-2 50 μM)",basal fEPSP slope or probability of release as indexed by paired pulse ratio (PPR) ([1]; TAPI-2 50 μM for 20 min),fEPSP slope after DHPG-induced LTD [1],"PP-1 Hz induced LTD (fEPSP slope) ([1]; control slices pretreated with TAPI-2 50 μM, t=50 min, n=4)",DHPG-stimulated increase in LFC-NPR ([2]; pretreatment of cultured neurons with TAPI-2),"surface LFC-NPR [3, 4]","surface GluR1 [3, 5]","DHPG-induced LTD (fEPSP slope) ([1]; slices from NP TKO mice, n=9)","DHPG-induced LTD (fEPSP slope) ([1]; slices from NPR KO mice, n=7)","DHPG-induced LTD (fEPSP slope) ([1]; slices from wild-type mice, n=13)","increase of LFC-NPR levels in lysates ([2]; 90 minutes after stimulation with 50 μM DHPG for 5 minutes, cultured cortical neurons ~DIV 14)","surface GluR1 ([3]; neurons cultured from NP TKO mouse cortex, after DHPG)","surface GluR1 ([3]; neurons cultured from control mouse cortex, 45 min after DHPG)"
CC(C)C[C@H](CC(=O)NO)C(=O)N[C@H](C(=O)N[C@@H](C)C(=O)NCCN)C(C)(C)C [TAPI-2],no effect,did not alter,93.8±2.5 % of baseline,101.8±5.6 % of baseline,blocked,108.9±16.0 % of vehicle control,102.4±4.9 % of vehicle control,,,,,,
"N[C@H](C(=O)O)c1cc(O)cc(O)c1 [DHPG, (S)-3,5-dihydroxyphenylglycine]",,,74.0±3.3 % of baseline,,,84.3±7.2 % of vehicle control,74.1±2.2 % of vehicle control,85.9±4.1%,96.3±2.5%,68.6±3.7%,60.7%±2.5%,98.4±9.7 % of vehicle control,46.3±8.3 % of vehicle control
